Measured values: patent EP4772506A1, “COMPOUND FOR REGULATING ACTIVITY OF MICRORNA-124” (Jiangsu Chia Tai Fenghai Pharmaceutical Co., Ltd., priority 2023, dated 2025)
Marks after values point to notes of the source that are not given here.

Tests used:
miR124 = assay: Effect of the compound on miR124 upregulation in PBMCs (qPCR, U6 as internal reference); format: cell-based, human; conditions: miR-124 expression, 5 µM, 6 days, batches normalized
Experimental: The effect of test compounds on miR124 expression levels was evaluated in human peripheral blood mononuclear cells (PBMCs). […] Test compounds (final concentration: 5 µM) were added for treatment at 37°C, 5% CO2 for 6 days, with medium replacement on day 3. The control group was treated with an equal volume of DMSO under the same conditions.
RNA Extraction: On day 6, cells were collected in a 15 mL centrifuge tube and centrifuged at 400g for 10 min, followed by supernatant removal. […] The upper RNA layer was aspirated into a clean 1.5 mL centrifuge tube (RNase-free), an equal volume of isopropanol was added, and left at room temperature for 10 min to precipitate RNA. Centrifugation at 4°C and 12000g for 10 min yielded a small white pellet at the tube bottom.
Fluorescent quantitative PCR reaction: miRNA quantification was performed using SYBR Green I intercalating fluorescence method, with simultaneous detection of the housekeeping gene U6 transcript level as internal reference.

[1] = test system: dextran sulfate sodium (DSS)-induced ulcerative colitis; assay: Preventive and therapeutic effects on DSS-induced ulcerative colitis (UC) in mice; format: in vivo, C57BL/6 mice; conditions: for relative body weight (% of initial): mean ± SEM; for Relative colon length (%): of the control group
Experimental: The preventive and therapeutic effects of the positive drug ABX464 and Compound 23 of the present disclosure on dextran sulfate sodium (DSS)-induced ulcerative colitis were evaluated using a DSS-induced ulcerative colitis (UC) model.
Female C57BL/6 mice (20-22 g) were randomly divided into 7 groups according to body weight after adaptive feeding, as shown in Table 4. On day 1, the mice were switched to 3% DSS feeding. After 10 days of DSS feeding, they were switched back to normal drinking water until day 13. From day 1 to day 13, the mice were continuously administered the corresponding solvents and drugs by gavage. Body weight changes were recorded daily from day 1 to day 13. On day 13, after recording body weight, the mice were dissected to measure colon length. The preventive and therapeutic effects of the test drug on ulcerative colitis in mice were evaluated based on relative body weight change rate and colon length. Table 4. Experimental animal grouping and model induction period

[2] = Pharmacokinetic study in rats (plasma, LC-MS/MS); conditions: rat, in vivo, po, 20 mg/kg
Experimental: • (1) SD male rats were used as test animals.
The administration solvent was a physiological saline solution containing 10% DMSO + 10% polyoxyl castor oil (Cremophor EL). Fasting was maintained for approximately 12 hours prior to administration, and free feeding was allowed 4 hours post-administration, with no water restriction. […] After gently inverting the tube to fully mix the anticoagulant EDTA-K2 with the blood, the tube was immediately placed on wet ice. The plasma was separated by centrifugation immediately after blood collection under the following centrifugation conditions: 4°C, 3500 rpm, and 5 min. The upper plasma layer was transferred and stored at -80°C until sample analysis. […] The pharmacokinetic parameters were calculated from the sample analysis results using WinNonlin software.

[3] = 6.25-50 mg/kg qd by gavage, overall conclusion
[4] = day 13, 6.25 mg/kg qd by gavage
[5] = day 13, 12.5 mg/kg qd by gavage

With `FC(F)(F)Oc1ccc(Nc2ncc3ccc(Cl)cc3n2)cc1` [Compound 23] as the compound, how does the “Average fold change compared to DMSO treatment, Average value” (miR124) read?
Its value is 6.54.

And the “effect on colon shortening in DSS-induced ulcerative colitis mice” value [1, 3]?
The value was “good therapeutic effect on colon shortening”.

And the “effect on weight loss in DSS-induced ulcerative colitis mice” value [1, 3]?
The value was “favorable restorative effect on weight loss”.

What about the weight loss ([1]; by day 9, 50 mg/kg qd by gavage) of the same compound?
Its weight loss is 3.09%.

And the weight loss ([1]; by day 10, 6.25 mg/kg qd by gavage)?
The weight loss was 7.52%.

And the weight loss ([1]; by day 10, 12.5 mg/kg qd by gavage)?
The weight loss was 8.99%.

And the weight loss ([1]; by day 10, 25 mg/kg qd by gavage)?
Its weight loss is 7.96%.

And the weight loss ([1]; by day 10, 50 mg/kg qd by gavage)?
The weight loss was 3.8%.

And the “relative body weight (% of initial)” value ([1]; day 1, 6.25 mg/kg qd by gavage)?
The value was 100±0.00%.

What about the “relative body weight (% of initial)” value ([1]; day 1, 12.5 mg/kg qd by gavage) of the same compound?
Its value is 100±0.00%.

And the “relative body weight (% of initial)” value ([1]; day 1, 25 mg/kg qd by gavage)?
The value was 100±0.00%.

What about the “relative body weight (% of initial)” value ([1]; day 1, 50 mg/kg qd by gavage) of the same compound?
Its value is 100±0.00%.

And the “relative body weight (% of initial)” value ([1]; day 2, 6.25 mg/kg qd by gavage)?
Its value is 101.5± 0.43%.

And the “relative body weight (% of initial)” value ([1]; day 2, 12.5 mg/kg qd by gavage)?
The value was 99.9±0.63%.

And the “relative body weight (% of initial)” value ([1]; day 2, 25 mg/kg qd by gavage)?
Its value is 100.5± 0.37%.

And the “relative body weight (% of initial)” value ([1]; day 2, 50 mg/kg qd by gavage)?
The value was 99.1±0.65%.

What about the “relative body weight (% of initial)” value ([1]; day 3, 6.25 mg/kg qd by gavage) of the same compound?
The value was 102.4± 0.78%.

What about the “relative body weight (% of initial)” value ([1]; day 3, 12.5 mg/kg qd by gavage) of the same compound?
The value was 100.8± 0.67%.

And the “relative body weight (% of initial)” value ([1]; day 3, 25 mg/kg qd by gavage)?
Its value is 101.1± 0.59%.

And the “relative body weight (% of initial)” value ([1]; day 3, 50 mg/kg qd by gavage)?
Its value is 100.2±0.78%.

What about the “relative body weight (% of initial)” value ([1]; day 4, 6.25 mg/kg qd by gavage) of the same compound?
Its value is 101.9± 1.02%.

And the “relative body weight (% of initial)” value ([1]; day 4, 12.5 mg/kg qd by gavage)?
Its value is 99.9 ± 0.87%.

And the “relative body weight (% of initial)” value ([1]; day 4, 25 mg/kg qd by gavage)?
Its value is 100.8± 0.44%.

And the “relative body weight (% of initial)” value ([1]; day 4, 50 mg/kg qd by gavage)?
The value was 100.0±0.74%.

What about the “relative body weight (% of initial)” value ([1]; day 5, 6.25 mg/kg qd by gavage) of the same compound?
Its value is 101.7± 0.98%.

And the “relative body weight (% of initial)” value ([1]; day 5, 12.5 mg/kg qd by gavage)?
Its value is 100.5± 0.88%.

What about the “relative body weight (% of initial)” value ([1]; day 5, 25 mg/kg qd by gavage) of the same compound?
Its value is 99.8±0.61%.

And the “relative body weight (% of initial)” value ([1]; day 5, 50 mg/kg qd by gavage)?
The value was 100.7±1.01%.

What about the “relative body weight (% of initial)” value ([1]; day 6, 6.25 mg/kg qd by gavage) of the same compound?
Its value is 100±0.97%.

What about the “relative body weight (% of initial)” value ([1]; day 6, 12.5 mg/kg qd by gavage) of the same compound?
Its value is 97.4±0.87%.

And the “relative body weight (% of initial)” value ([1]; day 6, 25 mg/kg qd by gavage)?
The value was 97.5±0.81%.

And the “relative body weight (% of initial)” value ([1]; day 6, 50 mg/kg qd by gavage)?
Its value is 98.0±1.15%.

And the “relative body weight (% of initial)” value ([1]; day 7, 6.25 mg/kg qd by gavage)?
The value was 96.4±1.18%.

What about the “relative body weight (% of initial)” value ([1]; day 7, 12.5 mg/kg qd by gavage) of the same compound?
Its value is 95.0±1.12%.

And the “relative body weight (% of initial)” value ([1]; day 7, 25 mg/kg qd by gavage)?
The value was 95.3±0.98%.

What about the “relative body weight (% of initial)” value ([1]; day 7, 50 mg/kg qd by gavage) of the same compound?
Its value is 96.9±1.03%.

And the “relative body weight (% of initial)” value ([1]; day 8, 6.25 mg/kg qd by gavage)?
Its value is 94.4±1.50%.

What about the “relative body weight (% of initial)” value ([1]; day 8, 12.5 mg/kg qd by gavage) of the same compound?
The value was 92.7±1.28%.

What about the “relative body weight (% of initial)” value ([1]; day 8, 25 mg/kg qd by gavage) of the same compound?
The value was 93.7±1.43%.

What about the “relative body weight (% of initial)” value ([1]; day 8, 50 mg/kg qd by gavage) of the same compound?
Its value is 96.7±1.20%.

What about the “relative body weight (% of initial)” value ([1]; day 9, 6.25 mg/kg qd by gavage) of the same compound?
The value was 93.4±1.75%.

And the “relative body weight (% of initial)” value ([1]; day 9, 12.5 mg/kg qd by gavage)?
Its value is 92.7±1.55%.

What about the “relative body weight (% of initial)” value ([1]; day 9, 25 mg/kg qd by gavage) of the same compound?
Its value is 92.6±2.25%.

And the “relative body weight (% of initial)” value ([1]; day 9, 50 mg/kg qd by gavage)?
The value was 96.9± 1.41 %.

What about the “relative body weight (% of initial)” value ([1]; day 10, 6.25 mg/kg qd by gavage) of the same compound?
The value was 92.5± 2.02 %.

What about the “relative body weight (% of initial)” value ([1]; day 10, 12.5 mg/kg qd by gavage) of the same compound?
The value was 91.0± 1.78 %.

What about the “relative body weight (% of initial)” value ([1]; day 10, 25 mg/kg qd by gavage) of the same compound?
The value was 92.0± 2.38 %.

And the “relative body weight (% of initial)” value ([1]; day 10, 50 mg/kg qd by gavage)?
The value was 96.2± 1.38 %.

What about the “relative body weight (% of initial)” value ([1]; day 11, 6.25 mg/kg qd by gavage) of the same compound?
Its value is 92.4±2.22%.

And the “relative body weight (% of initial)” value ([1]; day 11, 12.5 mg/kg qd by gavage)?
Its value is 91.9±1.91%.

And the “relative body weight (% of initial)” value ([1]; day 11, 25 mg/kg qd by gavage)?
The value was 94.6± 1.73 %.

And the “relative body weight (% of initial)” value ([1]; day 11, 50 mg/kg qd by gavage)?
Its value is 96.6± 1.45 %.

What about the “relative body weight (% of initial)” value ([1]; day 12, 6.25 mg/kg qd by gavage) of the same compound?
The value was 92.7±2.19%.

What about the “relative body weight (% of initial)” value ([1]; day 12, 12.5 mg/kg qd by gavage) of the same compound?
Its value is 92.1±1.17%.

And the “relative body weight (% of initial)” value ([1]; day 12, 25 mg/kg qd by gavage)?
The value was 93.5±1.57%.

What about the “relative body weight (% of initial)” value ([1]; day 12, 50 mg/kg qd by gavage) of the same compound?
The value was 96.5± 1.62 %.

What about the Colon length Mean [1, 4] of the same compound?
Its Colon length Mean is 7.18 cm.

And the “relative body weight (% of initial)” value [1, 4]?
The value was 92.0±2.52%.

And the Colon length Mean [1, 5]?
Its Colon length Mean is 7.85 cm.

What about the “relative body weight (% of initial)” value [1, 5] of the same compound?
Its value is 92.1±1.17%.

And the Colon length Mean ([1]; day 13, 25 mg/kg qd by gavage)?
Its Colon length Mean is 7.28 cm.

What about the “relative body weight (% of initial)” value ([1]; day 13, 25 mg/kg qd by gavage) of the same compound?
Its value is 95.3±1.63%.

What about the Colon length Mean ([1]; day 13, 50 mg/kg qd by gavage) of the same compound?
The Colon length Mean was 8.27 cm.

And the “relative body weight (% of initial)” value ([1]; day 13, 50 mg/kg qd by gavage)?
Its value is 96.5± 1.62 %.

What about the “Relative colon length (%)” value ([1]; day 13, 6.25 mg/kg qd by gavage, 6.25 mg/kg) of the same compound?
The value was 89.8### %.

What about the “Relative colon length (%)” value ([1]; day 13, 6.25 mg/kg qd by gavage, listed as compound 23, 6.25 mg/kg) of the same compound?
The value was 89.79%.

What about the “Relative colon length (%)” value ([1]; day 13, 12.5 mg/kg qd by gavage, 12.5 mg/kg) of the same compound?
The value was 98.1#### %.

And the “Relative colon length (%)” value ([1]; day 13, 12.5 mg/kg qd by gavage, listed as compound 23, 12.5 mg/kg)?
Its value is 98.1%.

And the “Relative colon length (%)” value ([1]; day 13, 25 mg/kg qd by gavage, 25 mg/kg)?
The value was 90.9#### %.

What about the “Relative colon length (%)” value ([1]; day 13, 25 mg/kg qd by gavage, listed as compound 23, 25 mg/kg) of the same compound?
Its value is 90.9%.

And the “Relative colon length (%)” value ([1]; day 13, 50 mg/kg qd by gavage, 50 mg/kg)?
Its value is 103.4#### %.

What about the “Relative colon length (%)” value ([1]; day 13, 50 mg/kg qd by gavage, listed as compound 23, 50 mg/kg) of the same compound?
The value was 103.3%.

What about the AUC(0-t) [2] of the same compound?
The AUC(0-t) was 5060 ng·h/mL.

And the Cmax [2]?
The Cmax was 1850 ng/mL.

What about the MRT inf [2] of the same compound?
Its MRT inf is 2.2 h.

And the Tmax [2]?
Its Tmax is 2 h.

What about the half-life [2] of the same compound?
The half-life was 2.65 h.
